Source: paper PMC12084609, “Structural insights into small-molecule agonist recognition and activation of complement receptor C3aR” (The EMBO Journal, 2025)
Positions count from the first letter of the chain named. pEC50, pIC50: −log10 of the molar value. Values joined by “and” are separate entries in the source; they are usually repeats but may differ in a detail not shown here. Identical values can stand only once. Like-named read-outs stand apart in the source and are kept apart here.

Key:
Format in all cases: cell-based
C3aR I102^3.32A = target: T1, C3aR I102^3.32A (Homo sapiens, UniProt Q16581, I102A); test: GloSensor-based cAMP assay, C3aR mutant I102A
T1 construct: expressed in transfected cells; host or cells: HEK293T
T1 sequence (Q16581 1-482 I102A): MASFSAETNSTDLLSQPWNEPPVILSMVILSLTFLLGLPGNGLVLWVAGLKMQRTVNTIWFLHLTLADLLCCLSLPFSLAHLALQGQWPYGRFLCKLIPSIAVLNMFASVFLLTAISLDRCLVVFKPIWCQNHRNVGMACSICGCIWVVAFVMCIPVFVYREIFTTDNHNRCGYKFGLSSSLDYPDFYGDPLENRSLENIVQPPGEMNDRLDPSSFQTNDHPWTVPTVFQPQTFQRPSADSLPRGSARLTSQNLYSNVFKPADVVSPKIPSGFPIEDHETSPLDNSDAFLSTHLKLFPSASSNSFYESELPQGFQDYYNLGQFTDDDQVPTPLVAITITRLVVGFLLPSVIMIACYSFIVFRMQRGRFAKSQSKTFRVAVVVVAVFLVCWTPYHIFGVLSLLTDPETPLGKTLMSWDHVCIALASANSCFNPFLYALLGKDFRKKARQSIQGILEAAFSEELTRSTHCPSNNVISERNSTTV
Protocol: (§1) HEK293T cells were seeded on 6-well plates (NEST) and transfected with pGlosensor™-22F plasmids (Promega) and pcDNA3.1 plasmids encoding C3aR or its mutants an with N-terminal FLAG tag. After 48 h, cells were detached with Accutase solution (Sigma-Aldrich) and washed with PBS, and resuspended in assay buffer (CO2-independent medium with 0.5 mg mL^−1D-luciferin). 100,000–200,000 cells were seeded on 96-well white bottom plates (SPL) and incubated at 37 °C for 45 min followed by 45 min incubation at room temperature. After 90 min of incubation, basal luminescence signals were recorded. In total, 25 μl of test ligand with various concentrations and 1 μM Forskolin (Sigma-Aldrich) were treated to the cells and luminescence signals were measured by Tristar 2 LB 942 multimode reader (Berthold). […] Relative luminescence unit (%) was calculated with the signal of wells treated with vehicle as 0% and the signal of wells treated with 1 μM Forskolin as 100% (DiRaddo et al, [2014]). Nonlinear regression was performed using a three-parameter logistic equation.

C3aR Y393^6.51A = target: T2, C3aR Y393^6.51A (Homo sapiens, UniProt Q16581, Y393A); test: GloSensor-based cAMP assay, C3aR mutant Y393A
T2 construct: expressed in transfected cells; host or cells: HEK293T
T2 sequence (Q16581 1-482 Y393A): T1 sequence (Q16581 1-482 I102A) with A102I, Y393A
Protocol: as §1

C3aR = C3aR (Homo sapiens, UniProt Q16581); test: Gi recruitment BRET assay (C3aR-eYFP / Gαi-Rluc8, HEK293T); details: for ΔBRET (ligand-vehicle): individual replicates
Chain of C3aR (Q16581 whole entry): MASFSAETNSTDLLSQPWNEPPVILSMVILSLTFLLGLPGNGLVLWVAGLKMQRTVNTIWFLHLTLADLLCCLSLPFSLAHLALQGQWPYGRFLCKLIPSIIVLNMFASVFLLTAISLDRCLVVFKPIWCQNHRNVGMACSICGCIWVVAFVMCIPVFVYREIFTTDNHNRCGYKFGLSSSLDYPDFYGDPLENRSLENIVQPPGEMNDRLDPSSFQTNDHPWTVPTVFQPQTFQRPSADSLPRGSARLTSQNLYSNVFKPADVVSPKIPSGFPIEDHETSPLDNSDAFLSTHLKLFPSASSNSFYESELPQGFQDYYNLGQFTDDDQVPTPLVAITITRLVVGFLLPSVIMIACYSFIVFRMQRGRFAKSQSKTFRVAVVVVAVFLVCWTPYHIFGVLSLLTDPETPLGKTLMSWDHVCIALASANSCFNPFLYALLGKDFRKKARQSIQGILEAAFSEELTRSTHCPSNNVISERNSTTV
Chain of C3aR (P63096 2-354 partner limits assumed): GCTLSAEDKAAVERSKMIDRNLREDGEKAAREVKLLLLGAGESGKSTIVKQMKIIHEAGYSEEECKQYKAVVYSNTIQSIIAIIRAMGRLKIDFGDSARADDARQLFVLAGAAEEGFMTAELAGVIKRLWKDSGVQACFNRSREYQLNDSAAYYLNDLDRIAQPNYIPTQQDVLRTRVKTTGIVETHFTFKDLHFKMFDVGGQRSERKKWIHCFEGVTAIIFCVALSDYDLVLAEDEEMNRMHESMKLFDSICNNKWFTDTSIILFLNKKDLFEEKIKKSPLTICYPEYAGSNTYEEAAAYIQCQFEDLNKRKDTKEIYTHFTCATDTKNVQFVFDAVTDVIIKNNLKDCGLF
Chain of C3aR (P62873 2-340 partner limits assumed): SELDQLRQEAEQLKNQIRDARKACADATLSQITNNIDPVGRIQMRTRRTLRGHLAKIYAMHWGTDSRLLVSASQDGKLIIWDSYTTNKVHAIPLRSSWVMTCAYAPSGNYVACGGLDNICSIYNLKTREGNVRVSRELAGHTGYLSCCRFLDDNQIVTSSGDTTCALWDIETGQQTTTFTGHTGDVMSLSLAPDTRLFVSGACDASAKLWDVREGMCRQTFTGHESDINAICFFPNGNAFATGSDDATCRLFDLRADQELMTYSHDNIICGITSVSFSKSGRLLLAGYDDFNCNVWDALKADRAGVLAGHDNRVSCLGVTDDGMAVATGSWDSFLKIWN
Chain of C3aR (P59768 2-68 partner limits assumed): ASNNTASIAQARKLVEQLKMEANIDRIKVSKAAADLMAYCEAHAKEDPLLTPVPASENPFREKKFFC
Protocol: HEK293T cells were seeded on 6-well plates (NEST) and transfected with pcDNA3.1 plasmids encoding C3aR-eYFP, Gαi-Rluc8, Gβ1, and Gγ2 with a ratio of 5:1:1:1. After 48 h, cells were harvested and resuspended with in PBS. Cells were treated with test ligand with various concentrations and seeded on 96-well white bottom plates (SPL). After 3 min incubation at 37 °C, coelenterazine h (Nanolight) was added with a final concentration of 10 μM. Luminescence and fluorescence were measured using a Tristar 2 LB 942 multimode reader (Berthold).

C3aR I98^3.28A = target: T3, C3aR I98^3.28A (Homo sapiens, UniProt Q16581, I98A); test: GloSensor-based cAMP assay, C3aR mutant I98A
T3 construct: expressed in transfected cells; host or cells: HEK293T
T3 sequence (Q16581 1-482 I98A): T1 sequence (Q16581 1-482 I102A) with I98A, A102I
Protocol: as §1

Cc1cc(C(c2ccc(Cl)cc2)c2ccc(Cl)cc2)sc1C(=O)N[C@@H](CCCNC(=N)N)C(=O)O [JR14a, reference compound]
remaining activity at 1 µM (C3aR I102^3.32A; I102A, Log[JR14a (M)] -6, single replicates, read-out: cAMP response (% Forskolin)): 11.4% | remaining activity at 0.1 µM (C3aR I102^3.32A; I102A, Log[JR14a (M)] -7, single replicates, read-out: cAMP response (% Forskolin)): 12.3% | remaining activity at 0.01 µM (C3aR I102^3.32A; I102A, Log[JR14a (M)] -8, single replicates, read-out: cAMP response (% Forskolin)): 52.6% | remaining activity at 0.001 µM (C3aR I102^3.32A; I102A, Log[JR14a (M)] -9, single replicates, read-out: cAMP response (% Forskolin)): 79.2% | remaining activity at 0.0001 µM (C3aR I102^3.32A; I102A, Log[JR14a (M)] -10, single replicates, read-out: cAMP response (% Forskolin)): 97.7% | remaining activity at 10 pM (C3aR I102^3.32A; I102A, Log[JR14a (M)] -11, single replicates, read-out: cAMP response (% Forskolin)): 104% | ΔpIC50 ± SE of Diff. (C3aR I102^3.32A; I102^3.32A relative to WT C3aR): -0.13 ± 0.07 | pIC50 (C3aR I102^3.32A; IC50, I102^3.32A, dose-response plot): 8.15 | pIC50 (C3aR I102^3.32A; pIC50 (Replicate), I102^3.32A, individual replicates): 8.11 and 8.04 and 8.33 | pIC50 (C3aR I102^3.32A; pIC50 ± SEM (Mean), I102^3.32A, mean of independent experiments): 8.16 | pIC50 (C3aR Y393^6.51A; IC50, Y393^6.51A, dose-response plot): 6.51 | remaining activity at 1 µM (C3aR Y393^6.51A; Y393A, Log[JR14a (M)] -6, single replicates, read-out: cAMP response (% Forskolin)): 21.8% | remaining activity at 0.1 µM (C3aR Y393^6.51A; Y393A, Log[JR14a (M)] -7, single replicates, read-out: cAMP response (% Forskolin)): 72.2% | remaining activity at 0.01 µM (C3aR Y393^6.51A; Y393A, Log[JR14a (M)] -8, single replicates, read-out: cAMP response (% Forskolin)): 96.3% | remaining activity at 0.0001 µM (C3aR Y393^6.51A; Y393A, Log[JR14a (M)] -10, single replicates, read-out: cAMP response (% Forskolin)): 94.3% | remaining activity at 10 pM (C3aR Y393^6.51A; Y393A, Log[JR14a (M)] -11, single replicates, read-out: cAMP response (% Forskolin)): 93.5% | pIC50 (C3aR Y393^6.51A; pIC50 (Replicate), Y393^6.51A, individual replicates): 6.51 and 6.40 and 6.58 | pIC50 (C3aR Y393^6.51A; pIC50 ± SEM (Mean), Y393^6.51A, mean of independent experiments): 6.50 | ΔBRET (ligand-vehicle) (C3aR; Log[ligand (M)] -6): 0.012 and 0.008 and 0.015 and 0.018 | ΔBRET (ligand-vehicle) (C3aR; Log[ligand (M)] -7): 0.005 and 0.015 and 0.017 | ΔBRET (ligand-vehicle) (C3aR; Log[ligand (M)] -8): 0.004 and 0.00244 and 0.012 and 0.018 | ΔBRET (ligand-vehicle) (C3aR; Log[ligand (M)] -9): 0.002 and -0.000881 and 0.00951 and 0.012 | ΔBRET (ligand-vehicle) (C3aR; Log[ligand (M)] -10): 0.00084 and -0.0022 and 0.006 and 0.009 | ΔBRET (ligand-vehicle) (C3aR; Log[ligand (M)] -11): 0.001 and -0.004 and 0.005 and 0.010 | ΔBRET (ligand-vehicle) (C3aR; Log[ligand (M)] -12): -6.28e-5 and 0.00465 and 0.004 | pEC50 (C3aR; dose-dependent increase in BRET ratio, read-out: EC50): 8.30 | pEC50 (C3aR; pEC50 ± SEM, Gi recruitment to C3aR, Appendix Table S1A): 8.34 | Span Value (C3aR; span of ΔBRET curve, Figure EV1A numerical data): 0.010 | Mean Diff. of pIC50, WT vs. I98A (C3aR I98^3.28A; Dunnett's multiple comparisons test, WT minus mutant): 0.356 | remaining activity at 0.01 µM (C3aR I98^3.28A; I98A, Log[JR14a (M)] -8, single replicates, read-out: cAMP response (% Forskolin)): 49.1% | remaining activity at 0.001 µM (C3aR I98^3.28A; I98A, Log[JR14a (M)] -9, single replicates, read-out: cAMP response (% Forskolin)): 88.6% | remaining activity at 0.0001 µM (C3aR I98^3.28A; I98A, Log[JR14a (M)] -10, single replicates, read-out: cAMP response (% Forskolin)): 95.5% | remaining activity at 10 pM (C3aR I98^3.28A; I98A, Log[JR14a (M)] -11, single replicates, read-out: cAMP response (% Forskolin)): 93.5% | ΔpIC50 ± SE of Diff. (C3aR I98^3.28A; I98^3.28A relative to WT C3aR): -0.36 ± 0.02 | pIC50 (C3aR I98^3.28A; IC50, I98^3.28A, dose-response plot): 8.04 | pIC50 (C3aR I98^3.28A; pIC50 (Replicate), I98^3.28A, individual replicates): 8.21 and 7.94 and 8.01 | pIC50 (C3aR I98^3.28A; pIC50 ± SEM (Mean), I98^3.28A, mean of independent experiments): 8.05
